Counter-ions that a name gives are not always drawn. Like-named read-outs stand apart in the source and are kept apart here.

The source of these data is patent publication US7951954B2, “Bezothiazol derivatives as Beta2 adrenoreceptor agonists” (AstraZeneca AB, priority 2006, dated 2011).

Test [1] concerns the target T1, recombinant human adrenergic beta 1 receptors (Homo sapiens, UniProt P08588).
T1 construct: purchased Euroscreen
Description: Adrenergic β1 selectivity assay, [125I]-Iodocyanopindolol binding to membranes. To be noted: inhibition of [125I]-Iodocyanopindolol binding, read-out: β1 pEC50 (converted). The protocol: Membranes containing recombinant human adrenergic beta 1 receptors were obtained from Euroscreen. These were diluted in Assay Buffer (50 mM HEPES, 1 mM EDTA, 120 mM NaCl, 0.1% gelatin, pH 7.4) to provide a final concentration of membranes that gave a clear window between maximum and minimum specific binding.
(§1) Assays were performed in U-bottomed 96-well polypropylene plates. 10 μL [^125I]-Iodocyanopindolol (0.036 nM final concentration) and 10 μL of test compound (10× final concentration) were added to each test well. For each assay plate 8 replicates were obtained for [^125I]-Iodocyanopindolol binding in the presence of 10 μL vehicle (10% (v/v) DMSO in Assay Buffer; defining maximum binding) or 10 μL Propranolol (10 μM final concentration; defining non-specific binding (NSB)). Membranes were then added to achieve a final volume of 100 μL. The plates were incubated for 2 hours at room temperature and then filtered onto PEI coated GF/B filter plates, pre-soaked for 1 hour in Assay Buffer, using a 96-well plate Tomtec cell harvester. Five washes with 250 μL wash buffer (50 mM HEPES, 1 mM EDTA, 120 mM NaCl, pH 7.4) were performed at 4° C. to remove unbound radioactivity. The plates were dried then sealed from underneath using Packard plate sealers and MicroScint-O (50 μL) was added to each well. The plates were sealed (TopSeal A) and filter-bound radioactivity was measured with a scintillation counter (TopCount, Packard BioScience) using a 3-minute counting protocol.
(§2) Total specific binding (B0) was determined by subtracting the mean NSB from the mean maximum binding. NSB values were also subtracted from values from all other wells.

Test [2] addresses T2, Adrenergic β2 (Homo sapiens, UniProt P07550).
T2 construct: endogenous in cells; host or cells: H292 cells
Briefly: Adrenergic β2 mediated cAMP production in H292 cells (AlphaScreen cAMP detection). Format: cell-based. The conditions noted are these: for EC50: cAMP production in H292 cells, 300 μM rolipram, 10 minutes with compound, read-out: β2 pEC50 (converted). The protocol: Adrenergic β2 Mediated cAMP Production
H292 cells were grown in RPMI (Roswell Park Memorial Institute) medium containing, 10% (v/v) FBS (foetal bovine serum) and 2 mM L-glutamine. Cells were grown in 225 cm2 flasks containing 25 mL media in a humidified incubator at 37° C., 5% CO2. Cells were harvested from the flask and passaged at a 1 in 10 dilution once per week.
The media from flasks containing H292 cells was removed, rinsed with 10 mL PBS phosphate buffered saline) and replaced with 10 mL Accutase™ cell detachment solution. Flasks were incubated for 15 minutes in a humidified incubator at 37° C., 5% CO2. The cell suspension was counted and the cells re-suspended in RPMI media (containing 10% (v/v) FBS and 2 mM L-glutamine) at 0.05×10^6 cells per mL. 5000 cells in 100 μL were added to each well of a tissue-culture-treated 96-well plate and the cells incubated overnight in a humidified incubator at 37° C., 5% CO2. The culture media was removed, washed twice with 100 μL assay buffer and replaced with 50 μL assay buffer. Cells were rested at room temperature for 20 minutes after which time 25 μL of rolipram (1.2 mM made up in assay buffer containing 2.4% (v/v) dimethylsulphoxide) was added. Cells were incubated with rolipram for 10 minutes after which time test compounds (made up as ×4 concentrated stocks in assay buffer containing 4% (v/v) dimethylsulphoxide) were added and the cells were incubated for 10 minutes at room temperature. Final rolipram concentration in the assay was 300 μM and final vehicle concentration was 1.6% (v/v) dimethylsulphoxide. The reaction was stopped by removing supernatants, washing once with 100 μL assay buffer and replacing with 50 μL lysis buffer. The cell monolayer was frozen at −80° C. for 30 minutes (or overnight).
The concentration of cAMP (cyclic adenosine monophosphate) in the cell lysate was determined using the AlphaScreen™ methodology. The frozen cell plate was thawed for 20 minutes on a plate shaker then 10 μL of the cell lysate was transferred to a 96-well white plate. 40 μL of mixed AlphaScreen™ detection beads (containing equal volumes of donor beads (pre-incubated with biotinylated cAMP in the dark for 30 minutes) and acceptor beads), was added to each well and the plate incubated at room temperature for 10 hours in the dark. The AlphaScreen™ signal was measured using an EnVision spectrophotometer (Perkin-Elmer Inc.) with the recommended manufacturer's settings. cAMP concentrations were determined by reference to a calibration curve determined in the same experiment using standard cAMP concentrations (made up in lysis buffer in a 96-well tissue-culture-treated plate and frozen/thawed alongside the test samples) and detected using the same protocol. Concentration response curves for agonists were constructed to determine both the pEC50 and Intrinsic Activity.

Test [3] deals with T3, recombinant human α1D receptor (Homo sapiens, UniProt P25100).
T3 construct: expressed in transfected cells; host or cells: HEK293
T3 sequence (P25100 1-572): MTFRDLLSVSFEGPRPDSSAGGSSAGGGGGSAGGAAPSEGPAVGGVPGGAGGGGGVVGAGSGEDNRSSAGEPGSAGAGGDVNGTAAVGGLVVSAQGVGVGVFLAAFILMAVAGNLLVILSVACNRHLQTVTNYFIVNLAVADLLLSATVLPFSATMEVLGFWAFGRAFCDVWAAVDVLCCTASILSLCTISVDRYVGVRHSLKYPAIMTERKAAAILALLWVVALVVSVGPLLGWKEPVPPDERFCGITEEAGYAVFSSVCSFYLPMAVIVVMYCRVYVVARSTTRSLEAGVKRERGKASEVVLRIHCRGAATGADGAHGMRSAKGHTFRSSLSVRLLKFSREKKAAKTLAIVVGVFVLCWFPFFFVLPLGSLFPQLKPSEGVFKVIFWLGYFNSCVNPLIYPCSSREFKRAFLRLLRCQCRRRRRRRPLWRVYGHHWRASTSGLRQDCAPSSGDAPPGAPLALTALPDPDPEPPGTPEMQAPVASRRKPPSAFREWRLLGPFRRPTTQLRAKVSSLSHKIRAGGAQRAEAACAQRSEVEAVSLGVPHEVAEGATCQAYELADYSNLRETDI
Briefly: Adrenergic α1D selectivity assay, [3H]-prazosin binding to HEK293 membranes. To be noted: inhibition of [3H]-prazosin binding, HEK293 membranes with recombinant human α1D; read-out: α1D pEC50 (converted). The protocol:
These were diluted in Assay Buffer (50 mM HEPES, 1 mM EDTA, 0.1% gelatin, pH 7.4) to provide a final concentration of membranes that gave a clear window between maximum and minimum specific binding.
as §1, with “10 μL [^125I]-Iodocyanopindolol (0.036 nM final concentration) and 10 μL of test compound (10× final concentration) were added to each test well.” left out, “[^3H]-prazosin” for “[^125I]-Iodocyanopindolol”, “BMY7378” for “Propranolol”, “EDTA,” for “EDTA, 120 mM NaCl,”
as §2

Where [4] appears, read: fraction relative to the maximum activity determined for formoterol in each experiment, H292 cells, cAMP.

T1 sequence (P08588 whole entry): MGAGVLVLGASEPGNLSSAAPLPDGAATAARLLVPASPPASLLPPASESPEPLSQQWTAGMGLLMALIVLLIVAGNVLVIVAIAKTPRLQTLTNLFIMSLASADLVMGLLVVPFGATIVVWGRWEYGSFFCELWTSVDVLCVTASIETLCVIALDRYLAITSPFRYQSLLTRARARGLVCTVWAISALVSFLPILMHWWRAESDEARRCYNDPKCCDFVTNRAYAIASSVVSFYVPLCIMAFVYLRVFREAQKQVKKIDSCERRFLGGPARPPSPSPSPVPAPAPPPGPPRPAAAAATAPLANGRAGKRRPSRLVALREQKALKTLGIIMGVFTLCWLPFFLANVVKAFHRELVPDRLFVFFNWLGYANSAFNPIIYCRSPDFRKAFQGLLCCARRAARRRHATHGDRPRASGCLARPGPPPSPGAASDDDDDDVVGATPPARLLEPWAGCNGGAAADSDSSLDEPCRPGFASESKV
T2 sequence (P07550 whole entry): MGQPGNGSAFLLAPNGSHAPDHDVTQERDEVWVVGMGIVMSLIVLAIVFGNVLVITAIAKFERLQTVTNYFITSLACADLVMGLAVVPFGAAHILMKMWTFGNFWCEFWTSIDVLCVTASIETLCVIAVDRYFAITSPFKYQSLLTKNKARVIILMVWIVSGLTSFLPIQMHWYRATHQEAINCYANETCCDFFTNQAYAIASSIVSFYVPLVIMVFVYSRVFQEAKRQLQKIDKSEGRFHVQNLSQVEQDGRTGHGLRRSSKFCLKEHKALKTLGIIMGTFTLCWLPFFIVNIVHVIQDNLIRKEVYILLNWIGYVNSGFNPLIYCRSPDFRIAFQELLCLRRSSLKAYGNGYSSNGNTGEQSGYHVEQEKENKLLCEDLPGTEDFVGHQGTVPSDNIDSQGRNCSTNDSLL

With `O=c1[nH]c2c(O)ccc([C@@H](O)CNCCc3cccc(CNCCc4c(Cl)cccc4Cl)c3)c2s1` [Example 1, 7-{2-[2-(3-{[2-(2,6-Dichloro-phenyl)-ethylamino]-methyl}-phenyl)-ethylamino]-1R-hydroxy-ethyl}-4-hydroxy-3H-benzothiazol-2-one bis-trifluoroacetate salt], the results for the EC50 in test [1] and in test [3] were 12.6 nM and 63.1 nM, respectively. Besides, the “Intrinsic Activity” value in test [2] (setting [4]) was 0.8.
For the molecule `O=c1[nH]c2c(O)ccc([C@@H](O)CNCCc3cccc(CNCc4ccccc4Cl)c3)c2s1` [Example 3, 7-[2-(2-{3-[(2-Chloro-benzylamino)-methyl]-phenyl}-ethylamino)-1R-hydroxy-ethyl]-4-hydroxy-3H-benzothiazol-2-one bis-trifluoroacetate salt], the EC50 in test [1] is 10 nM; in test [3] it was 158 nM. In addition, in test [2], the “Intrinsic Activity” value is listed as 0.9.
Consider `O=c1[nH]c2c(O)ccc([C@@H](O)CNCCc3cccc(CN[C@@H]4C[C@H]4c4ccc(F)cc4)c3)c2s1` [Example 10, 7-{2-[2-(3-{[2S-(4-Fluoro-phenyl)-cycloprop-1R-ylamino]-methyl}-phenyl)-ethylamino]-1R-hydroxy-ethyl}-4-hydroxy-3H-benzothiazol-2-one bis-trifluoroacetate salt], for which the EC50 was 200 nM in test [1], 0.316 nM in test [2] and 316 nM in test [3]. In test [2] (setting [4]), the “Intrinsic Activity” value stood at 1.0.
Take `COCCNCc1cccc(CCNC[C@H](O)c2ccc(O)c3[nH]c(=O)sc23)c1` [Example 13, 4-Hydroxy-7-[1R-hydroxy-2-(2-{3-[(2-methoxy-ethylamino)-methyl]-phenyl}-ethylamino)-ethyl]-3H-benzothiazol-2-one di-hydrochloride salt]: the values for the EC50 in test [1], in test [2] and in test [3] were 158 nM, 2 nM and 501 nM, respectively. For the same molecule, in test [2], the “Intrinsic Activity” value is given as 1.0.
For the molecule `CC(Cc1cccc(CNCCc2c(Cl)cccc2Cl)c1)NC[C@H](O)c1ccc(O)c2[nH]c(=O)sc12` (stereo partly drawn) [Example 15, 7-{2-[2-(3-{[2-(2,6-Dichloro-phenyl)-ethylamino]-methyl}-phenyl)-1-methyl-ethylamino]-1R-hydroxy-ethyl}-4-hydroxy-3H-benzothiazol-2-one bis-trifluoroacetate salt], the EC50 in test [1] was 15.8 nM; in test [3] it was 39.8 nM. For the same molecule, the “Intrinsic Activity” value in test [2] was 0.8.
For `O=c1[nH]c2c(O)ccc([C@@H](O)CNCCc3ccc(CNCCc4ccccn4)cc3)c2s1` [Example 22, 4-Hydroxy-7-[1R-hydroxy-2-(2-{4-[(2-(2-pyridyl)ethylamino)methyl]phenyl}-ethylamino)ethyl]-3H-benzothiazol-2-one tris-trifluoroacetate salt] the same measures were 794 nM, 25.1 nM and 1.0.
Take `COc1ccccc1CNCc1cccc(CCNC[C@H](O)c2ccc(O)c3[nH]c(=O)sc23)c1` [Example 36, 4-Hydroxy-7-[1R-hydroxy-2-(2-{3-[(2-methoxy-benzylamino)-methyl]-phenyl}-ethylamino)-ethyl]-3H-benzothiazol-2-one bis-trifluoroacetate salt]: the EC50 is 50.1 nM in test [1] and 200 nM in test [3]. Moreover, the “Intrinsic Activity” value in test [2] was found to be 0.8.
With `O=c1[nH]c2c(O)ccc([C@@H](O)CNCCc3cccc(CNCCc4cccc[n+]4[O-])c3)c2s1` [Example 40, 4-Hydroxy-7-{1R-hydroxy-2-[2-(3-{[2-(1-oxy-pyridin-2-yl)-ethylamino]-methyl}-phenyl)-ethylamino]-ethyl}-3H-benzothiazol-2-one bis-trifluoroacetate salt], the values for the EC50 in test [1], in test [2] and in test [3] were 39.8 nM, 2.51 nM and 100 nM, respectively. Also, in test [2] (setting [4]), the “Intrinsic Activity” value was found to be 0.8.
